Assay results taken from patent US6803378B2, “HIV integrase inhibitors” (Bristol-Myers Squibb Company, priority 2000, dated 2004).

How the values were obtained:
[1] = biological target: T1, HIV Integrase (Human immunodeficiency virus type 1 group M subtype B, UniProt P04585); experiment: In vitro activity against integrase, Method B (SPA assay); assay type: biochemical; details: read-out: Percent inhibition of HIV Integrase at 70 uM
T1 construct: 0.26 ng of recombinant integrase was then incubated with the beads
Method: (§1) The in vitro activities, against integrase, of compounds of the present invention were measured by one of the following three methods.
(§2) In Method B, the in vitro activity against integrase was measured by binding, for each reaction, 5 pmole of biotin labeled substrate DNA to 100 ug of Streptavidin coated PVT SPA beads (Amersham Pharmacia Biotech). 0.26 ng of recombinant integrase was then incubated with the beads for 90 min at 37° C. Unbound enzyme was removed by washing the complex followed by addition of inhibitors and 0.1 fmol of P33 labeled target DNA. Reaction was stopped by adding EDTA to a final concentration of 10 mM. Samples were counted in TopCountNXT (Packard) and the CPM was used as a measure of integration. Reaction condition was as described in A. Engelman and R. Craigie, J. Virol. 69, 5908-5911 (1995). The sequences of substrate and target DNA were described in Nucleic Acid Research 22, 1121-1122 (1994).

[2] = biological target: T1, HIV Integrase; experiment: In vitro activity against integrase, Method C (electroluminescence, ECL assay); assay type: biochemical; details: read-out: Percent inhibition of HIV Integrase at 70 uM
Method: as §1, §2
Method C (Electroluminesence Assay):
The ECL assay of Method C is essentially the same as the SPA assay of Method B, except that 0.5 μg of Streptavidin coated magnetic beads and 0.5 pmol Ru labeled target DNA were used for each reaction instead of SPA beads and P33 labeled DNA. The samples were read in a M8 analyzer (IGEN International, Inc).

SMILES	inhibition at 70 µM [1]	inhibition at 70 µM [2]
O=C(O)/C(O)=C/C(=O)N(CCCc1ccccc1)c1ccc(Cl)cc1 [Compound 56, 3-[(4-Chloro-phenyl)-(3-phenyl-propyl)-carbamoyl]-2-hydroxy-acrylic acid]	88%	–
O=C(O)/C(O)=C/C(=O)N(Cc1ccc(F)cc1)c1ccc(Cl)cc1 [Compound 70, 3-[(4-Chloro-phenyl)-(4-fluoro-benzyl)-carbamoyl]-2-hydroxy-acrylic acid]	92%	–
O=C(O)/C(O)=C/C(=O)N(CCc1ccncc1)Cc1ccc(F)cc1 [Compound 86, 3-[(4-Fluoro-benzyl)-(2-pyridin-4-yl-ethyl)-carbamoyl]-2-hydroxy-acrylic acid]	–	97%
O=C(O)/C(O)=C/C(=O)N(Cc1ccc(Cl)cc1)Cc1ccc(Cl)cc1 [Compound 57, 3-[Bis-(4-chloro-benzyl)-carbamoyl]-2-hydroxy-acrylic acid]	99%	–
CNC(=O)c1cccc(C(c2ccc(F)cc2)N(C)C(=O)/C=C(\O)C(=O)O)c1 (stereo not drawn) [Compound 79, 3-{[(4-Fluoro-phenyl)-(3-methylcarbamoyl-phenyl)-methyl]-methyl-carbamoyl}-2-hydroxy-acrylic acid]	–	90%
CN(Cc1ccccc1Cc1ccccc1)C(=O)/C=C(\O)C(=O)O [Compound 84, 3-[(2-Benzyl-benzyl)-methyl-carbamoyl]-2-hydroxy-acrylic acid]	88%	–
O=C(O)/C(O)=C/C(=O)N(Cc1ccccc1)Cc1ccccc1 [Compound 14, 3-Dibenzylcarbamoyl-2-hydroxy-acrylic acid]	94.5%	–
O=C(O)/C(O)=C/C(=O)N(Cc1ccc(F)cc1)c1ccc(F)cc1 [Compound 72, 3-[(4-Fluoro-benzyl)-(4-fluoro-phenyl)-carbamoyl]-2-hydroxy-acrylic acid]	99%	–
Cc1ccc(CN(C(=O)/C=C(\O)C(=O)O)c2ccc(F)cc2)cc1 [Compound 73, 3-[(4-Fluoro-phenyl)-(4-methyl-benzyl)-carbamoyl]-2-hydroxy-acrylic acid]	99%	–
O=C(O)/C(O)=C/C(=O)N(CCOc1ccc(F)cc1)Cc1ccc(F)cc1 [Compound 47, 3-{(4-Fluoro-benzyl)-[2-(4-fluoro-phenoxy)-ethyl]-carbamoyl}-2-hydroxy-acrylic acid]	–	99%
CC(c1ccc(F)cc1)N(C)C(=O)/C=C(\O)C(=O)O (stereo not drawn) [Compound 50, 3-{[1-(4-Fluoro-phenyl)-ethyl]-methyl-carbamoyl}-2-hydroxy-acrylic acid]	–	99%
O=C(/C=C(\O)C(=O)O)NC(c1ccc(Cl)cc1)c1ccc(Cl)cc1 [Compound 92, 3-{[Bis-(4-chloro-phenyl)-methyl]-carbamoyl}-2-hydroxy-acrylic acid]	94%	–
CN(Cc1ccc2ccccc2c1)C(=O)/C=C(\O)C(=O)O [Compound 54, 2-Hydroxy-3-(methyl-naphthalen-2-ylmethyl-carbamoyl)-acrylic acid]	99%	–
O=C(O)/C(O)=C/C(=O)N(Cc1ccc(F)cc1)Cc1ccco1 [Compound 74, 3-[(4-Fluoro-benzyl)-furan-2-ylmethyl-carbamoyl]-2-hydroxy-acrylic acid]	98%	–
CN(C(=O)/C=C(\O)C(=O)O)C(Cc1ccc(F)cc1)c1ccc(F)cc1 (stereo not drawn) [Compound 78, 3-{[1,2-Bis-(4-fluoro-phenyl)-ethyl]-methyl-carbamoyl}-2-hydroxy-acrylic acid]	–	75%
CN(CCC(c1ccc(F)cc1)c1ccc(F)cc1)C(=O)/C=C(\O)C(=O)O [Compound 80, 3-{[3,3-Bis-(4-fluoro-phenyl)-propyl]-methyl-carbamoyl}-2-hydroxy-acrylic acid]	90%	–
O=C(O)/C(O)=C/C(=O)N(CCOc1ccccc1)Cc1ccc(F)cc1 [Compound 49, 3-[(4-Fluoro-benzyl)-(2-phenoxy-ethyl)-carbamoyl]-2-hydroxy-acrylic acid]	–	99%
CN(CCCc1ccc(F)cc1)C(=O)/C=C(\O)C(=O)O [Compound 46, 3-{[3-(4-Fluoro-phenyl)-propyl]-methyl-carbamoyl}-2-hydroxy-acrylic acid]	–	99%
O=C(CCCCCNC(=O)/C(O)=C/C(=O)N(Cc1ccc(F)cc1)Cc1ccc(F)cc1)NS(=O)(=O)c1ccccc1 [Compound 146, 2-Hydroxy-but-2-enedioic acid 1-[(6-benzenesulfonylamino-6-oxo-hexyl)-amide] 4-[bis-(4-fluoro-benzyl)-amide]]	98%	–
CN(Cc1cccc(Oc2ccccc2)c1)C(=O)/C=C(\O)C(=O)O [Compound 64, 2-Hydroxy-3-[methyl-(3-phenoxy-benzyl)-carbamoyl]-acrylic acid]	95%	–

SMILES	inhibition at 70 µM [1]	inhibition at 70 µM [2]
CN(Cc1cccc(-c2ccc(F)cc2)c1)C(=O)/C=C(\O)C(=O)O [Compound 63, 3-[(4′-Fluoro-biphenyl-3-ylmethyl)-methyl-carbamoyl]-2-hydroxy-acrylic acid]	98%	–
Cc1ccc(CNC(=O)/C=C(\O)C(=O)O)cc1F [Compound 91, 3-(3-Fluoro-4-methyl-benzylcarbamoyl)-2-hydroxy-acrylic acid]	99%	–
O=C(O)/C(O)=C/C(=O)N(CCCc1ccccc1F)Cc1ccc(F)cc1 [Compound 51, 3-{(4-Fluoro-benzyl)-[3-(2-fluoro-phenyl)-propyl]-carbamoyl}-2-hydroxy-acrylic acid]	–	100%
Cc1ccc(CN(C(=O)/C=C(\O)C(=O)O)c2ccc(Cl)cc2)cc1 [Compound 71, 3-[(4-Chloro-phenyl)-(4-methyl-benzyl)-carbamoyl]-2-hydroxy-acrylic acid]	99%	–
O=C(O)/C(O)=C/C(=O)N(Cc1ccc(F)cc1)CC1CC1c1ccccc1 (stereo not drawn) [Compound 52, 3-[(4-Fluoro-benzyl)-(2-phenyl-cyclopropylmethyl)-carbamoyl]-2-hydroxy-acrylic acid]	–	99%
O=C(CCCCCNC(=O)/C(O)=C/C(=O)N(CCCc1ccccc1Cl)Cc1ccc(F)cc1)NS(=O)(=O)c1ccccc1 [Compound 147, 2-Hydroxy-but-2-enedioic acid 1-[(6-benzenesulfonylamino-6-oxo-hexyl)-amide] 4-[[3-(2-chloro-phenyl)-propyl]-(4-fluoro-benzyl)-amide]]	–	98%
CCCNC(=O)/C(O)=C/C(=O)N(Cc1ccc(F)cc1)Cc1ccc(F)cc1 [Compound 144, 2-Hydroxy-but-2-enedioic acid 4-[bis-(4-fluoro-benzyl)-amide] 1-propylamide]	–	83%
CC(C)N(CCCc1ccccc1)C(=O)/C=C(\O)C(=O)O [Compound 44, 2-Hydroxy-3-[isopropyl-(3-phenyl-propyl)-carbamoyl]-acrylic acid]	–	95.5%
CN(Cc1ccccc1Cc1ccc(F)cc1)C(=O)/C=C(\O)C(=O)O [Compound 81, 3-{[2-(4-Fluoro-benzyl)-benzyl]-methyl-carbamoyl}-2-hydroxy-acrylic acid]	95%	–
CN(Cc1ccco1)C(=O)/C=C(\O)C(=O)O [Compound 75, 3-(Furan-2-ylmethyl-methyl-carbamoyl)-2-hydroxy-acrylic acid]	–	91%
COc1cc(CN(C)C(=O)/C=C(\O)C(=O)O)ccc1F [Compound 60, 3-[(4-Fluoro-3-methoxy-benzyl)-methyl-carbamoyl]-2-hydroxy-acrylic acid]	99%	–
O=C(O)/C(O)=C/C(=O)N(Cc1ccc(F)cc1)Cc1ccc2ccccc2c1 [Compound 53, 3-[(4-Fluoro-benzyl)-naphthalen-2-ylmethyl-carbamoyl]-2-hydroxy-acrylic acid]	99%	–
Cc1cc(CN(C)C(=O)/C=C(\O)C(=O)O)ccc1F [Compound 61, 3-[(4-Fluoro-3-methyl-benzyl)-methyl-carbamoyl]-2-hydroxy-acrylic acid]	99%	–
CN(Cc1ccc(F)c(F)c1)C(=O)/C=C(\O)C(=O)O [Compound 59, 3-[(3,4-Difluoro-benzyl)-methyl-carbamoyl]-2-hydroxy-acrylic acid]	98%	–
COc1ccc(CN(Cc2ccc(F)cc2)C(=O)/C=C(\O)C(=O)O)cc1Cl [Compound 76, 3-[(3-Chloro-4-methoxy-benzyl)-(4-fluoro-benzyl)-carbamoyl]-2-hydroxy-acrylic acid]	99%	–
O=C(O)/C(O)=C/C(=O)N(Cc1ccc2ccccc2c1)c1ccc(Cl)cc1 [Compound 55, 3-[(4-Chloro-phenyl)-naphthalen-2-ylmethyl-carbamoyl]-2-hydroxy-acrylic acid]	99%	–
CN(Cc1cccc(Cl)c1)C(=O)/C=C(\O)C(=O)O [Compound 62, 3-[(3-Chloro-benzyl)-methyl-carbamoyl]-2-hydroxy-acrylic acid]	99%	–
CN(Cc1ccc(F)c(Cl)c1)C(=O)/C=C(\O)C(=O)O [Compound 58, 3-[(3-Chloro-4-fluoro-benzyl)-methyl-carbamoyl]-2-hydroxy-acrylic acid]	99%	–
CN(Cc1ccc(F)cc1)C(=O)/C=C(\O)C(=O)O [Compound 16, 3-[(4-Fluoro-benzyl)-methyl-carbamoyl]-2-hydroxy-acrylic acid]	97%	–
